Key:
H460 lung cancer cells = assay: Alamar Blue proliferation assay with pair-wise miRNA combinations; type: cell-based, human
Excerpt: miRNAs function in multiple pathways controlling multiple cellular processes. Cancer cells frequently show aberrations in several different pathways, which determine their oncogenic properties. […] The inventors assessed the efficacy of pair-wise miRNA combinations, administering hsa-miR-34a concurrently with either hsa-miR-124a, hsa-miR-126, hsa-miR-147, hsa-let-7b, hsa-let-7c or hsa-let-7g (Pre-miR™ miRNA, Ambion cat. no. AM17100). H460 lung cancer cells were transiently reverse-transfected in triplicate with each miRNA at a final concentration of 300 pM, resulting in 600 pM of total oligonucleotide. For negative controls, 600 pM of Pre-miR™ microRNA Precursor Molecule-Negative Control #2 (Ambion cat. no. AM17111) were used. To correlate the effect of various combinations with the effect of the sole miRNA, each miRNA at 300 pM was also combined with 300 pM negative control miRNA. Reverse transfection was carried out using the following parameters: 7,000 cells per 96 well, 0.15 μl Lipofectamine™ 2000 (Invitrogen) in 20 μl OptiMEM (Invitrogen), 100 μl total transfection volume. […] Cells were harvested 72 hours after transfection and subjected to Alamar Blue assays (Invitrogen). Percent proliferation values from the Alamar Blue assays were normalized to those obtained from cells treated with 600 pM negative control miRNA. Data are expressed as % proliferation relative to negative control miRNA-treated cells (Table 8, FIG. 3).
Additive activity of pair-wise combinations (e.g., hsa-miR-34a plus hsa-miR-147) is defined as an activity that is greater than the sole activity of each miRNA (e.g., the activity of hsa-miR-34a plus hsa-miR-147 is greater than that observed for hsa-miR-34a plus NC and the activity of hsa-miR-34a plus hsa-miR-147 is greater than that observed for hsa-miR-147 plus NC). Synergistic activity of pair-wise combinations is defined as an activity that is greater than the sum of the sole activity of each miRNA (e.g., the activity of hsa-miR-34a plus hsa-let-7g is greater than that observed for the sum of the activity of hsa-miR-34a plus NC and the activity of hsa-let-7g plus NC). […] The combinatorial use of miRNAs represents a potentially useful therapy for cancer and other diseases.

H226 cells = assay: Alamar Blue proliferation assay, lung cancer cells (electroporation); type: cell-based, human; conditions: hsa-miR-34a (head: 30 nM), electroporation, 72 hours, normalized to NC (100%)
Excerpt: The inventors assessed the therapeutic effect of hsa-miR-34a for lung cancer by using eight individual lung cancer cell lines. To measure cellular proliferation of lung cancer cells, the following non-small cell lung cancer (NSCLC) cells were used: cells derived from lung adenocarcinoma (A549, H522, Calu-3, HCC2935), cells derived from lung squamous cell carcinoma (H226), cell derived from lung adenosquamous cell carcinoma (H596), cells derived from lung bronchioalveolar carcinoma (H1650), and cells derived from lung large cell carcinoma (H460). Synthetic hsa-miR-34a (Pre-miR™-hsa-miR-34a, Ambion cat. no. AM17100) or negative control (NC) miRNA (Pre-miR™ microRNA Precursor Molecule-Negative Control #2; Ambion cat. no. AM17111) was delivered via lipid-based transfection into A549, H522, H596, Calu-3, HCC2935, H1650, H460 cells and via electroporation into H226 cells.
Lipid-based reverse transfections were carried out in triplicate according to a published protocol (Ovcharenko et al., 2005) and the following parameters: cells (5,000-12,000 per 96 well), 0.1-0.2 μl Lipofectamine™ 2000 (cat. no. 11668-019, Invitrogen Corp., Carlsbad, Calif., USA) in 20 μl OptiMEM (Invitrogen), 30 nM final concentration of miRNA in 100 μl. Electroporation of H226 cells was carried out using the BioRad Gene Pulser Xcell™ instrument (BioRad Laboratories Inc., Hercules, Calif., USA) with the following settings: 5×10^6 cells with 5 μg miRNA in 200 μl OptiMEM (1.6 μM miRNA), square wave pulse at 250 V for 5 ms. Electroporated H226 cells were seeded at 7,000 cells per 96-well in a total volume of 100 μl. All cells except for Calu-3 cells were harvested 72 hours post transfection or electroporation for assessment of cellular proliferation. Calu-3 cells were harvested 10 days post transfection. Proliferation assays were performed using Alamar Blue (Invitrogen) following the manufacturer's instructions. As a control for inhibition of cellular proliferation, siRNA against the motor protein kinesin 11, also known as Eg5, was used. […]

PPC-1 tumors = assay: Histology and immunohistochemistry (Ki-67, caspase 3) of xenograft tumors; type: in vivo, NOD/SCID mice
Procedure: To gain further insight into the biological status of these cells, immunohistochemistry analyses specific for the proliferation marker Ki-67, as well as caspase 3, an indicator of apoptosis were performed.

[1] = test system: leukemic T cells (Jurkat); conditions: cited from earlier work
[2] = areas with viable cells in treated PPC-1 tumors

Substance: hsa-miR-34a: synthetic miRNA; mature sequence UGGCAGUGUCUUAGCUGGUUGUU (MIMAT0000255; SEQ ID NO:1) (synthetic miRNA, chemistry not given here)
- reduction of proliferation (H460 lung cancer cells; 300 pM hsa-miR-34a plus 300 pM negative control miRNA): 0.42%
- % proliferation (H460 lung cancer cells; each miRNA 300 pM (600 pM total), 72 h, normalized to 600 pM negative control miRNA): 99.58%
- % proliferation (H226 cells): 89.50%
- tumor histology (hematoxylin and eosin) (PPC-1 tumors; PPC-1 tumors): consisted mostly of matrigel with cellular debris and sparsely distributed cells
- Ki-67 (proliferation marker) immunohistochemistry (PPC-1 tumors; [2]): reduced levels
- caspase 3 (apoptosis indicator) immunohistochemistry (PPC-1 tumors; [2]): increased levels
- proliferation [1]: inhibits the proliferation

Source: patent US20090227533A1, “miR-34 Regulated Genes and Pathways as Targets for Therapeutic Intervention” (priority 2007, published 2009)
